Patent US8815535B2, “Disk diffusion assay for oritavancin” (The Medicines Company, priority 2011, dated 2014)
Like-named read-outs stand apart in the source and are kept apart here.

Tested on: MSSA ATCC 25923
Assay: Disk diffusion assay (zone of inhibition)
Type: cell-based, Staphylococcus aureus
Conditions: Staphylococcus aureus; for zone of inhibition at 90 µg/disc: 90 μg oritavancin in 0.002% P80; for zone of inhibition at 12.5 µg/disc: 12.5 μg in 4% P80/Span 80 (1:1); for zone of inhibition at 100 µg/disc: 100 μg in 4% P80/Span 80 (1:1); for zone of inhibition at 200 µg/disc: 200 μg in 4% P80/Span 80 (1:1); for zone of inhibition at 270 µg/disc: 270 μg
Excerpt: The study was designed to identify conditions that improve oritavancin diffusion in agar and consequently yield a zone diameter ≧15 mm for the CLSI quality control strain MSSA ATCC 25923. Excipients that increased the disk diffusion of oritavancin in agar relative to disks containing only oritavancin were identified and selected for further study. […] A prediffusion step at room temperature was introduced to maximize oritavancin diffusion prior to initiation of bacterial growth. In this step, the antimicrobial disks were placed on agar plates seeded with a bacterial isolate and incubated at room temperature for 3 hours. Plates were then incubated overnight at 37° C. Zone diameters around the disks in which bacterial growth was inhibited were measured with a ruler and reported in millimeters.
Ethanol-sterilized Whatman paper disks (6 mm diameter) were allowed to dry then impregnated with 20 microliters of oritavancin solution containing total amounts ranging from 90 to 360 micrograms. Disks were allowed to dry at room temperature for various times prior to use.
Bacterial suspensions were prepared and adjusted to an optical density of 0.1 at 600 nm. […] The plate was swabbed a second time, perpendicular to the orientation of the first swab. To assess the impact of prediffusion on diameter of inhibition zones, two disks were immediately placed on one half of the plate and the plate was incubated for 3 hours at room temperature. After 3 hours, two additional disks were placed on the other half of the plate then the plate was incubated overnight at 37° C. Zone diameters were measured with a ruler and reported in millimeters. […]
Oritavancin powder was dissolved in freshly-prepared solutions of the indicated excipients at concentrations of 0.625, 1.25, 2.5, 5, and 10 mg/ml (adjusted for potency based on lot 875561L00 purity of 83.1%) by vortexing for a minimum of 5 minutes. Oritavancin solutions in the various excipients, while not visually clear, were free from any apparent particulates as assessed visually. Sterile Oxoid blank disks were impregnated with 20 μl of these oritavancin solutions, resulting in oritavancin disk loads ranging from 12.5 to 200 μg. Unless indicated otherwise, disks were allowed to dry overnight at room temperature prior to use.
[…] Swabbing was continued at a right angle and then at an oblique angle to the first and second swabs. Disks were placed upon the seeded plates with sterile forceps. Plates were then incubated overnight at 37° C. and inhibition zone diameters were measured with a ruler and reported in millimeters.

[1] = read-out: Inhibition zone diameter, 25923, calcium alginate swab, dried overnight
[2] = read-out: Inhibition zone diameter, 25923, cotton swab, dried overnight, estimate of diameter

**Q.** For `CN[C@H](CC(C)C)C(=O)N[C@H]1C(=O)N[C@@H](CC(N)=O)C(=O)N[C@H]2C(=O)N[C@H]3C(=O)N[C@H](C(=O)N[C@H](C(=O)O)c4cc(O)cc(O)c4-c4cc3ccc4O)[C@H](O[C@H]3C[C@](C)(N)[C@@H](O)[C@H](C)O3)c3ccc(c(Cl)c3)Oc3cc2cc(c3O[C@@H]2O[C@H](CO)[C@@H](O)[C@H](O)[C@H]2O[C@H]2C[C@](C)(NCc3ccc(-c4ccc(Cl)cc4)cc3)[C@@H](O)[C@H](C)O2)Oc2ccc(cc2Cl)[C@H]1O` [oritavancin, N-(4-(4-chlorophenyl)benzyl)A82846B], which zone of inhibition at 45 µg/disc (read-out: Average zone diameter, MSSA ATCC 25923, 45 μg oritavancin in 0.002% P80, CAMHA containing 1% P80, prediffusion) is on record?
**A.** 12.3 mm

**Q.** And the zone of inhibition at 90 µg/disc (read-out: Average zone diameter, MSSA ATCC 25923, CAMHA containing 1% P80, no prediffusion)?
**A.** 11.8 mm

**Q.** And the zone of inhibition at 90 µg/disc (read-out: Average zone diameter, MSSA ATCC 25923, CAMHA containing 1% P80, prediffusion)?
**A.** 12.8 mm

**Q.** What about the zone of inhibition at 180 µg/disc (read-out: Average zone diameter, MSSA ATCC 25923, 180 μg oritavancin in 0.002% P80, CAMHA containing 1% P80, no prediffusion) of the same compound?
**A.** 12.3 mm

**Q.** What about the zone of inhibition at 180 µg/disc (read-out: Average zone diameter, MSSA ATCC 25923, 180 μg oritavancin in 0.002% P80, CAMHA containing 1% P80, prediffusion) of the same compound?
**A.** 13 mm

**Q.** And the zone of inhibition at 360 µg/disc (read-out: Average zone diameter, MSSA ATCC 25923, 360 μg oritavancin in 0.002% P80, CAMHA containing 1% P80, no prediffusion)?
**A.** 12.8 mm

**Q.** What about the zone of inhibition at 360 µg/disc (read-out: Average zone diameter, MSSA ATCC 25923, 360 μg oritavancin in 0.002% P80, CAMHA containing 1% P80, prediffusion) of the same compound?
**A.** 12.5 mm

**Q.** And the zone of inhibition at 12.5 µg/disc [1]?
**A.** 20 mm

**Q.** And the zone of inhibition at 12.5 µg/disc [2]?
**A.** 27 mm

**Q.** And the zone of inhibition at 25 µg/disc (read-out: Inhibition zone diameter, 25923, 25 μg in 4% P80/Span 80 (1:1), cotton swab (Table 14), dried overnight, estimate of diameter)?
**A.** 30 mm

**Q.** And the zone of inhibition at 50 µg/disc (read-out: Inhibition zone diameter, 25923, 50 μg in 4% P80/Span 80 (1:1), calcium alginate swab, dried overnight)?
**A.** 19 mm

**Q.** And the zone of inhibition at 50 µg/disc (read-out: Inhibition zone diameter, 25923, 50 μg in 4% P80/Span 80 (1:1), cotton swab, dried overnight, estimate of diameter)?
**A.** 24 mm

**Q.** And the zone of inhibition at 100 µg/disc [1]?
**A.** 14 mm

**Q.** What about the zone of inhibition at 100 µg/disc [2] of the same compound?
**A.** 21 mm

**Q.** What about the zone of inhibition at 200 µg/disc [1] of the same compound?
**A.** 11 mm

**Q.** What about the zone of inhibition at 200 µg/disc [2] of the same compound?
**A.** 15 mm

**Q.** What about the zone of inhibition at 1250 µg/mL (read-out: Inhibition zone diameter, ATCC 25923, 25 μg (20 μl of 1.25 mg/ml) in 4% P80/Span 80 (1:1), calcium alginate swab, dried overnight) of the same compound?
**A.** 21 mm

**Q.** And the zone of inhibition at 50 µg/disc (read-out: Inhibition zone diameter, ATCC 25923, 50 μg, 4% P80/Span 80 ratio 50:50, dried overnight, estimate of diameter)?
**A.** 23 mm

**Q.** And the zone of inhibition at 50 µg/disc (read-out: Inhibition zone diameter, ATCC 25923, 50 μg, 4% P80/Span 80 ratio 60:40, dried overnight, estimate of diameter)?
**A.** 21 mm

**Q.** And the zone of inhibition at 50 µg/disc (read-out: Inhibition zone diameter, ATCC 25923, 50 μg, 4% P80/Span 80 ratio 70:30, dried overnight, estimate of diameter)?
**A.** 19 mm

**Q.** And the zone of inhibition at 50 µg/disc (read-out: Inhibition zone diameter, ATCC 25923, 50 μg, 4% P80/Span 80 ratio 80:20, dried overnight, estimate of diameter)?
**A.** 16 mm

**Q.** And the zone of inhibition at 50 µg/disc (read-out: Inhibition zone diameter, ATCC 25923, 50 μg, 4% P80/Span 80 ratio 90:10, dried overnight, estimate of diameter)?
**A.** 13 mm

**Q.** And the zone of inhibition at 1250 µg/mL (read-out: Inhibition zone diameter, ATCC 25923, 20 μl of 1.25 mg/ml oritavancin in 1% poly(ethylene glycol) sorbitol hexaoleate)?
**A.** ≤ 15 mm

**Q.** And the zone of inhibition at 1250 µg/mL (read-out: Inhibition zone diameter, ATCC 25923, 20 μl of 1.25 mg/ml oritavancin in 5% Brij 30)?
**A.** ≤ 15 mm

**Q.** What about the zone of inhibition at 1250 µg/mL (read-out: Inhibition zone diameter, ATCC 25923, 20 μl of 1.25 mg/ml oritavancin in 5% Merpol SE) of the same compound?
**A.** ≤ 15 mm

**Q.** What about the zone of inhibition at 18000 µg/mL (read-out: Inhibition zone diameter, ATCC 25923, Oxoid disks, 20 μl of 18 mg/ml oritavancin in 5% P80, stored 30 days at room temperature, prediffusion 6 hours at 4° C.) of the same compound?
**A.** > 15 mm

**Q.** And the zone of inhibition at 1250 µg/mL (read-out: Inhibition zone diameter, MSSA ATCC 25923, 20 μl of 1.25 mg/ml in 4% P80/Span 80 (1:1), cotton swab (FIG. 2), dried overnight)?
**A.** ~24 mm

**Q.** And the zone of inhibition at 1250 µg/mL (read-out: Inhibition zone diameter, MSSA ATCC 25923, 20 μl of 1.25 mg/ml in 4% P80/Span 80 (1:1), flocked swab (FIG. 2), dried overnight)?
**A.** ~24 mm

**Q.** And the zone of inhibition at 1250 µg/mL (read-out: Inhibition zone diameter, MSSA ATCC 25923, 20 μl of 1.25 mg/ml in 4% P80/Span 80 (1:1), foam swab (FIG. 2), dried overnight)?
**A.** ~26 mm

**Q.** What about the zone of inhibition at 1250 µg/mL (read-out: Inhibition zone diameter, MSSA ATCC 25923, 20 μl of 1.25 mg/ml in 4% P80/Span 80 (1:1), polyester swab (FIG. 2), dried overnight) of the same compound?
**A.** ~24 mm

**Q.** What about the zone of inhibition at 1250 µg/mL (read-out: Inhibition zone diameter, MSSA ATCC 25923, 20 μl of 1.25 mg/ml in 4% P80/Span 80 (1:1), rayon swab (FIG. 2), dried overnight) of the same compound?
**A.** ~22 mm

**Q.** What about the zone of inhibition at 180 µg/disc (read-out: Inhibition zone diameter, MSSA ATCC 25923, Oxoid disk, 180 μg, 2.5% P80, stored 7 days, prediffusion 3 h at 4° C., duplicates) of the same compound?
**A.** 12.5 mm

**Q.** And the zone of inhibition at 180 µg/disc (read-out: Inhibition zone diameter, MSSA ATCC 25923, Oxoid disk, 180 μg, 5% P80, stored 7 days, prediffusion 3 h at 4° C., duplicates)?
**A.** 12 mm

**Q.** What about the zone of inhibition at 270 µg/disc (read-out: Inhibition zone diameter, MSSA ATCC 25923, Oxoid disk, 2.5% P80, stored 7 days, prediffusion 3 h at 4° C., duplicates) of the same compound?
**A.** 13 mm

**Q.** What about the zone of inhibition at 270 µg/disc (read-out: Inhibition zone diameter, MSSA ATCC 25923, Oxoid disk, 5% P80, stored 7 days, prediffusion 3 h at 4° C., duplicates) of the same compound?
**A.** 13 mm

**Q.** What about the zone of inhibition at 360 µg/disc (read-out: Inhibition zone diameter, MSSA ATCC 25923, Oxoid disk, 360 μg, 2.5% P80, stored 7 days, prediffusion 3 h at 4° C., duplicates) of the same compound?
**A.** 13 mm

**Q.** And the zone of inhibition at 360 µg/disc (read-out: Inhibition zone diameter, MSSA ATCC 25923, Oxoid disk, 360 μg, 5% P80, stored 7 days, prediffusion 3 h at 4° C., duplicates)?
**A.** 14 mm

**Q.** And the zone of inhibition at 180 µg/disc (read-out: Inhibition zone diameter, MSSA ATCC 25923, Whatman #5 disk, 180 μg, 2.5% P80, stored 7 days, prediffusion 3 h at 4° C., duplicates)?
**A.** 15.5 mm

**Q.** What about the zone of inhibition at 180 µg/disc (read-out: Inhibition zone diameter, MSSA ATCC 25923, Whatman #5 disk, 180 μg, 5% P80, stored 7 days, prediffusion 3 h at 4° C., duplicates) of the same compound?
**A.** 14.5 mm

**Q.** And the zone of inhibition at 270 µg/disc (read-out: Inhibition zone diameter, MSSA ATCC 25923, Whatman #5 disk, 2.5% P80, stored 7 days, prediffusion 3 h at 4° C., duplicates)?
**A.** 15.5 mm

**Q.** And the zone of inhibition at 270 µg/disc (read-out: Inhibition zone diameter, MSSA ATCC 25923, Whatman #5 disk, 5% P80, stored 7 days, prediffusion 3 h at 4° C., duplicates)?
**A.** 16 mm

**Q.** What about the zone of inhibition at 360 µg/disc (read-out: Inhibition zone diameter, MSSA ATCC 25923, Whatman #5 disk, 360 μg, 2.5% P80, stored 7 days, prediffusion 3 h at 4° C., duplicates) of the same compound?
**A.** 15.5 mm

**Q.** And the zone of inhibition at 360 µg/disc (read-out: Inhibition zone diameter, MSSA ATCC 25923, Whatman #5 disk, 360 μg, 5% P80, stored 7 days, prediffusion 3 h at 4° C., duplicates)?
**A.** 16 mm

**Q.** And the zone of inhibition at 360 µg/disc (read-out: Zone diameter (mm ± SD), ATCC 25923, 360 μg in 5% P80, Average of experiments, no prediffusion)?
**A.** 14.9 ± 0.5 mm

**Q.** And the zone of inhibition at 360 µg/disc (read-out: Zone diameter (mm ± SD), ATCC 25923, 360 μg in 5% P80, Average of experiments, prediffusion)?
**A.** 17.5 ± 0.6 mm

**Q.** What about the zone of inhibition at 360 µg/disc (read-out: Zone diameter (mm ± SD), ATCC 25923, 360 μg in 5% P80, Experiment 1, disks stored 14 days, 3 h prediffusion at room temperature) of the same compound?
**A.** 18 mm

**Q.** And the zone of inhibition at 360 µg/disc (read-out: Zone diameter (mm ± SD), ATCC 25923, 360 μg in 5% P80, Experiment 2, disks stored 8 days, 3 h prediffusion at room temperature)?
**A.** 17 mm
